# Read-outs that look alike come from different tables or passages of the source.
# How the values were obtained:
# [1] = tested on: azole-resistant Candida albicans R357 strain; assay: microbe, parasite or virus in culture; format: cell-based
# [2] = tested on: C. albicans vaginal isolates; assay: Susceptibility testing of VVC clinical isolates at pH 7 and 4 (CLSI M27-A3); format: cell-based, Candida albicans; conditions: for Number of isolates at MIC 0.25 μg/mL / Number of isolates at MIC 0.5 μg/mL / Number of isolates at MIC 1 μg/mL / Number of isolates at MIC 2 μg/mL / Number of isolates at MIC 4 μg/mL / Number of isolates at MIC ≥4 μg/mL / Number of isolates at MIC 0.125 μg/mL: 60 VVC isolates; for MIC / MIC90: Candida albicans; for MIC: read-out: MIC; for MIC90: 60 isolates, read-out: MIC90
# [3] = tested on: C. tropicalis vaginal isolates; assay: as above; format: cell-based; conditions: Candida tropicalis, 13 isolates, read-out: MIC90
# [4] = tested on: Candida albicans; assay: Broth microdilution of invasive fungal isolates (CLSI M27-A3/M38-A2); format: cell-based; conditions: CLSI breakpoints
smiles,measurement,setting,value
"OC(Cn1cncn1)(Cn1cncn1)c1ccc(F)cc1F [FLU, fluconazole]",Susceptibility (CLSI),[1]; C. albicans R357,R
same,MIC,[1]; Candida albicans,> 64 µg/mL
same,Number of isolates at MIC 0.25 μg/mL,"[2]; 24 h, pH 4",35
same,Number of isolates at MIC 0.5 μg/mL,"[2]; 24 h, pH 4",13
same,Number of isolates at MIC 1 μg/mL,"[2]; 24 h, pH 4",2
same,Number of isolates at MIC 2 μg/mL,"[2]; 24 h, pH 4",2
same,Number of isolates at MIC 4 μg/mL,"[2]; 24 h, pH 4",1
same,Number of isolates at MIC ≥4 μg/mL,"[2]; 24 h, pH 4",7
same,Number of isolates at MIC 0.125 μg/mL,"[2]; 24 h, pH 7",25
same,Number of isolates at MIC 0.25 μg/mL,"[2]; 24 h, pH 7",19
same,Number of isolates at MIC 0.5 μg/mL,"[2]; 24 h, pH 7",7
same,Number of isolates at MIC 1 μg/mL,"[2]; 24 h, pH 7",1
same,Number of isolates at MIC 2 μg/mL,"[2]; 24 h, pH 7",2
same,Number of isolates at MIC ≥4 μg/mL,"[2]; 24 h, pH 7",6
same,Number of isolates at MIC 0.5 μg/mL,"[2]; 48 h, pH 4",27
same,Number of isolates at MIC 1 μg/mL,"[2]; 48 h, pH 4",13
same,Number of isolates at MIC 2 μg/mL,"[2]; 48 h, pH 4",5
same,Number of isolates at MIC 4 μg/mL,"[2]; 48 h, pH 4",1
same,Number of isolates at MIC ≥4 μg/mL,"[2]; 48 h, pH 4",14
same,Number of isolates at MIC 0.125 μg/mL,"[2]; 48 h, pH 7",3
same,Number of isolates at MIC 0.25 μg/mL,"[2]; 48 h, pH 7",37
same,Number of isolates at MIC 0.5 μg/mL,"[2]; 48 h, pH 7",8
same,Number of isolates at MIC 1 μg/mL,"[2]; 48 h, pH 7",2
same,Number of isolates at MIC 2 μg/mL,"[2]; 48 h, pH 7",1
same,Number of isolates at MIC ≥4 μg/mL,"[2]; 48 h, pH 7",9
same,MIC,"[2]; 48 h, pH 4, fluconazole-resistant isolate 1, pH 4, 48 h",> 64 µg/mL
same,MIC,"[2]; 48 h, pH 4, fluconazole-resistant isolate 2, pH 4, 48 h",32 µg/mL
same,MIC,"[2]; 48 h, pH 4, fluconazole-resistant isolate 3, pH 4, 48 h",> 64 µg/mL
same,MIC,"[2]; 48 h, pH 4, fluconazole-resistant isolate 4, pH 4, 48 h",> 64 µg/mL
same,MIC,"[2]; 48 h, pH 4, fluconazole-resistant isolate 5, pH 4, 48 h",> 64 µg/mL
same,MIC,"[2]; 48 h, pH 4, fluconazole-resistant isolate 6, pH 4, 48 h",> 64 µg/mL
same,MIC,"[2]; 48 h, pH 4, fluconazole-resistant isolate 7, pH 4, 48 h",32 µg/mL
same,MIC,"[2]; 48 h, pH 4, fluconazole-resistant isolate 8, pH 4, 48 h",> 64 µg/mL
same,MIC,"[2]; 48 h, pH 4, fluconazole-resistant isolate 9, pH 4, 48 h",> 64 µg/mL
same,MIC,"[2]; 48 h, pH 4, fluconazole-resistant isolate 10, pH 4, 48 h",64 µg/mL
same,MIC,"[2]; 48 h, pH 7, fluconazole-resistant isolate 1, pH 7, 48 h",16 µg/mL
same,MIC,"[2]; 48 h, pH 7, fluconazole-resistant isolate 2, pH 7, 48 h",16 µg/mL
same,MIC,"[2]; 48 h, pH 7, fluconazole-resistant isolate 3, pH 7, 48 h",16 µg/mL
same,MIC,"[2]; 48 h, pH 7, fluconazole-resistant isolate 4, pH 7, 48 h",8 µg/mL
same,MIC,"[2]; 48 h, pH 7, fluconazole-resistant isolate 5, pH 7, 48 h",> 64 µg/mL
same,MIC,"[2]; 48 h, pH 7, fluconazole-resistant isolate 6, pH 7, 48 h",0.25 µg/mL
same,MIC,"[2]; 48 h, pH 7, fluconazole-resistant isolate 7, pH 7, 48 h",16 µg/mL
same,MIC,"[2]; 48 h, pH 7, fluconazole-resistant isolate 8, pH 7, 48 h",32 µg/mL
same,MIC,"[2]; 48 h, pH 7, fluconazole-resistant isolate 9, pH 7, 48 h",> 64 µg/mL
same,MIC,"[2]; 48 h, pH 7, fluconazole-resistant isolate 10, pH 7, 48 h",16 µg/mL
same,MIC90,"[2]; pH 4, 24 h",8 µg/mL
same,MIC90,"[2]; pH 4, 48 h",> 64 µg/mL
same,MIC90,"[2]; pH 7, 24 h",8 µg/mL
same,MIC90,"[2]; pH 7, 48 h",16 µg/mL
same,MIC90,"[3]; pH 4, 24 h",8 µg/mL
same,MIC90,"[3]; pH 4, 48 h",> 64 µg/mL
same,MIC90,"[3]; pH 7, 24 h",2 µg/mL
same,MIC90,"[3]; pH 7, 48 h",64 µg/mL
same,% of isolates with fluconazole resistance,[4],2.0%
